For 92 compounds, EC50 results are on record in PubChem BioAssay AID1902 (Broad Institute, 2009).

In this assay the target is S. pyogenes SKKanGAS, kanamycin survival, BacTiterGlo, 6 h. As to the kind of experiment: SKKanGAS survival reduction under kanamycin, dose response, streptokinase promoter inhibitor project, SKKanGAS strain, luminescence, dose confirmation (AID 1902).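 Note: lower survival reflects blocked streptokinase promoter driving kanamycin resistance gene.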

The source made the active and inactive calls.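 Rule for the calls: active = EC50 no more than a set limit of log units above the highest dose; inactive = the rest.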

Take `Cc1ccc(NC(=O)CN2C(=O)S/C(=C/c3ccc(-c4cc(C(=O)O)ccc4C)o3)C2=O)cc1C`: the EC50 (in general, the concentration needed to bring the measured effect to its halfway point) was 2.11 µM.

For the compound `O=c1cc(CSc2ccc(Cl)cc2)nc(-c2ccccn2)[nH]1`, the EC50 was 0.371 µM.

As to `COc1ccc(N2CCN(C(=O)Cc3csc(NC(=O)Nc4ccccc4OC)n3)CC2)cc1`, the EC50 was 12.7 µM.

Turning to `CCc1ccc(-c2cc(C)no2)cc1S(=O)(=O)Nc1cccc(CN2CCCC2)c1`, the EC50 was > 15 µM (inactive).

Consider `CC(=O)C(=Nc1ccc(Cl)cc1Cl)NNc1cccc(Cl)c1`, for which the EC50 was 5.07 µM.

Turning to `COc1ccc(Oc2nc(C(F)(F)F)nc3ccccc23)cc1`, the EC50 was 7.14 µM.

Consider `CCc1nc(SCC(=O)Nc2ccccc2OC)c2c(C)c(C)sc2n1`, for which the EC50 was 6.58 µM.

In the case of `CCN(CC)S(=O)(=O)c1cccc(C(=O)Nc2nc3cc4c(cc3s2)OCCO4)c1`, the EC50 is 0.976 µM.

In the case of `O=C(COc1c(Cl)cccc1Cl)Nc1ccccc1N1CCCC1`, the EC50 is 6.24 µM.

Turning to `CC1(C(=O)NC(=S)NNC(=O)c2ccncc2)CCCCC1`, the EC50 is 1.1 µM.

With `Cc1ccc(Cc2cnc(N3C(=N)SC(c4ccccc4)C3=O)s2)cc1` (configuration not stated), the EC50 was 0.105 µM.

In the case of `O=C(O)c1cnc(-c2ccccc2)nc1Sc1ccc(Cl)cc1Cl`, the EC50 is 9.74 µM.

Take `COc1ccc(/C=N\NC(=O)c2cc(O)c(O)c(O)c2)cc1COc1ccc(C(=O)OCC(C)C)cc1`: the EC50 is 7.28 µM.

Take `c1ccc(Nc2nc3ccccc3[nH]2)nc1`: the EC50 was 1.46 µM.

On to `C=CCn1c(O)c(C(CC)=Nc2ccc(N(CC)CC)cc2)c(=O)[nH]c1=O`, for which the EC50 was 1.66 µM.

For the compound `CC(C)(C)c1cc(C(=O)NNc2cc(C(F)(F)F)ccc2Cl)n(Cc2ccccc2)n1`, the EC50 is 4.92 µM.

Turning to `O=C(O)CN1C(=O)/C(=C\c2cc(Br)ccc2OCc2ccc(Cl)cc2Cl)SC1=S`, the EC50 was 1.51 µM.

Regarding `N/C(=N\N=C/c1ccc(Br)cc1)N/N=C\c1ccc(Br)cc1`, the EC50 was 3.8 µM.

Turning to `CC(C)C[C@H](NC(=O)c1[nH]cnc1C(=O)N[C@@H](C)c1ccccc1)C(=O)OCc1ccccc1`, the EC50 was 1.16 µM.

In the case of `c1ccc(Nc2nc(N3CCCCC3)nc(N3CCCCC3)n2)cc1`, the EC50 was 8.25 µM.

For the compound `Cc1ccc(C2CC(c3cccs3)=NN2C(=O)c2ccc(Br)o2)cc1` (configuration not stated), the EC50 was 1.94 µM.

Regarding `CC1(C)CC[C@]2(C(=O)O)CC[C@]3(C)C(=CCC4[C@@]5(C)CC[C@H](O)C(C)(C)C5CC[C@]43C)C2C1` (some centres not stated), the EC50 was 2.69 µM.

As to `O=C(CN1c2ccccc2Sc2ccccc21)NNC(=S)Nc1ccc(Cl)cc1`, the EC50 was 2.67 µM.

Turning to `Nc1ccc(-c2nc3nc(N)nc(N)c3nc2-c2ccc(N)cc2)cc1`, the EC50 is 3.77 µM.

For `C=CC1=C(C(=O)O)N2C(=O)C(NC(=O)Cc3ccccc3)C2SC1` (configuration not stated), the EC50 is 0.13 µM.

For the compound `O=c1c(O)c(-c2cccs2)oc2ccc(Cl)cc12`, the EC50 was 2.06 µM.

For `CCS(=O)(=O)c1nc(S(=O)(=O)c2ccc(C)cc2)c(NCCN2CCOCC2)s1`, the EC50 is > 15 µM (inactive).

Take `COc1ccc(C(=O)CSc2[nH]c(=O)cc(C(F)(F)F)c2C#N)cc1`: the EC50 was 7.06 µM.

On to `Cc1ccc(/C=C/C(=O)c2ccccc(=O)c2O)c(C)c1`, for which the EC50 is 3.57 µM.

Take `Cc1cc(Oc2ccc(-c3ccccc3)cc2)nc(N2CCOCC2)n1`: the half-maximal effective concentration (EC50) was 5.71 µM.

For `CCC(C(=O)N1CCC(N2CCCCC2)CC1)n1nc(C)c2sc3ccccc3c2c1=O` (configuration not stated), the EC50 is > 15 µM (inactive).

As for `CC(C)CC(=O)NC(NC(=S)Nc1sc2c(c1C#N)CCCC2)C(Cl)(Cl)Cl` (configuration not stated), the EC50 was 1.66 µM.

Take `Cc1ccc(Nc2nc3nonc3[nH]c2=O)cc1Cl`: the EC50 was 2.54 µM.

On to `CC(C)/C(=N/Nc1ccccc1[N+](=O)[O-])c1ccccc1`, for which the EC50 was 6.51 µM.

Take `Cc1nn(-c2ccccc2)c(Cl)c1C1C(C#N)=C(N)OC2=C1C(=O)CCC2` (configuration not stated): the EC50 is 1.25 µM.

Take `CC(C(=O)NC1C(=O)N2C(C(=O)O)=C(CSc3nnnn3C)CSC12)n1cc(Cl)cn1` (configuration not stated): the EC50 is 0.078 µM.

Regarding `CC[n+]1c(/C=C2\Sc3ccccc3N2C)ccc2cccc(C)c21`, the EC50 was 3.84 µM.

On to `CN(C)[C@@H]1C(=O)C(C(N)=O)=C(O)[C@@]2(O)C(=O)C3=C(O)c4c(O)cccc4[C@@](C)(O)C3C[C@@H]12` (some centres not stated), for which the EC50 is 0.096 µM.

On to `Cc1[nH]c(-c2ccc(F)cc2)cc1C(=O)N1CCN(c2cccc(Cl)c2)CC1`, for which the EC50 was 4.92 µM.

Take `Clc1cccc(Cl)c1C1Nc2cccc3cccc(c23)N1`: the EC50 is 8.81 µM.

Regarding `CC(C)(C)c1cc(NCc2ccccn2)n2ncc(-c3ccc(Cl)cc3)c2n1`, the EC50 was 1.34 µM.

Regarding `Cc1nn(Cc2ccc(Cl)cc2Cl)c(C)c1NC(=O)NC12CC3CC(CC(C3)C1)C2`, the EC50 is 14.2 µM.

Regarding `CCCCN(CCCC)C(=S)N/N=C/c1c(C)[nH]n(-c2ccccc2)c1=O`, the EC50 is 0.399 µM.

Regarding `OC(COc1ccc2ccccc2c1Br)Cn1cnc(-c2ccccc2)c1` (configuration not stated), the EC50 is 5.71 µM.

As to `CC12CCC(C/C1=N\N=C1\NC(=O)/C(=C\c3ccc(Cl)cc3)S1)C2(C)C` (configuration not stated), the EC50 was 1.13 µM.

`C#CCOCCOCCOCCNc1nc(N2CCN(C(=O)CCCCCCCCCCNC(=O)[C@H](CCCCN)n3cc(C[C@@H](C)CC)nn3)CC2)nc(N2CCN(C(=O)CCCCCCCCCCNC(=O)[C@H](CCCCN)n3cc(C[C@@H](C)CC)nn3)CC2)n1`: the EC50 is 5.16 µM.

On to `CCOC(=O)c1c(NC(=O)c2cccs2)sc2c1CCN(C(=O)OCC)C2`, for which the 50% effective concentration (EC50) was 13 µM.

For `O=C(O)c1ccc(S(=O)(=O)/N=C2\C=C(Nc3ccccc3F)C(=O)c3ccccc32)cc1`, the EC50 was 3.1 µM.

`O=C(NC(NC(=S)Nc1c(Cl)cc(Cl)cc1Cl)C(Cl)(Cl)Cl)OCc1ccccc1` (configuration not stated): the EC50 is 0.978 µM.

For the compound `Fc1cccc2sc(Nc3nnc(-c4ccco4)o3)nc12`, the EC50 was 0.307 µM.

Turning to `Cc1cc(C)c2nc(NNC(=O)c3ccc(S(=O)(=O)N4CCCC(C)C4)cc3)sc2c1` (configuration not stated), the EC50 is 0.297 µM.

Take `O=C(CSc1nnc(NC(=O)c2cccc(F)c2)s1)NCC1CCCO1` (configuration not stated): the EC50 was > 15 µM (inactive).

For `Cc1cc(C)c(OCC(=O)Nc2nc(-c3ccccn3)cs2)c(C)c1`, the EC50 is 1.4 µM.

`COc1ccc(C#Cc2ccc3c(=O)c4ccccc4n(C)c3c2)cc1`: the EC50 was 13.9 µM.

Regarding `Cc1ccc(OP(=O)(Nc2cccc(C)c2)Oc2ccc(C)cc2)cc1`, the EC50 was 9.09 µM.

In the case of `CCOC(=O)c1ccc(NC(=O)c2sc3nc4n(c(=O)c3c2C)CCC4)cc1`, the EC50 was 1.99 µM.

In the case of `CC1(C)CC(c2nc(-c3ccc(Cl)cc3)cs2)CCS1` (configuration not stated), the EC50 is 6.7 µM.

For the compound `COc1cc(C)c(C(=O)CC(=O)c2c(C)cc(OC)cc2C)c(C)c1`, the EC50 was 1.61 µM.

Regarding `CCc1ccc2c(c1)C1(NN=C(c3cccc4ccccc34)S1)C(=O)N2` (configuration not stated), the EC50 is 0.115 µM.

As for `Cc1ccc2nc(NNC(=O)c3ccc(S(=O)(=O)N4CCc5ccccc5C4)cc3)sc2c1`, the EC50 was 0.793 µM.

Turning to `O=C(NC12CC3CC(CC(C3)C1)C2)c1ccc([N+](=O)[O-])o1`, the EC50 was 2 µM.

Consider `CCCCCCn1c(=O)c(C(=O)Nc2cnccn2)c(O)c2ccccc21`, for which the EC50 was 2.98 µM.

`Cc1c(C(=O)N/N=C/c2ccc(Cl)cc2)[nH]c2ccc(Cl)cc12`: the EC50 is 2.71 µM.

As to `CSc1nc(SCC(=O)O)c2sc3nc(-c4ccccc4)c4c(c3c2n1)CCC4`, the EC50 is 1.14 µM.

On to `Cc1cccc(/C=N/NC(=O)c2ccccc2OCc2cccc(Br)c2)n1`, for which the EC50 was 6.56 µM.

As for `COc1ccccc1NC(=O)C(=O)NNC(=O)COc1ccc2ccccc2c1`, the EC50 was 2.2 µM.

Turning to `O=C(O)CCCN1C(=O)/C(=C\c2ccc(-c3nc4ccccc4s3)o2)SC1=S`, the EC50 is 4.89 µM.

On to `COc1ccc(OC)c(NC(=O)NCc2cccnc2)c1`, for which the EC50 was > 15 µM (inactive).

`CCOC(=O)/C(=N/Nc1ccccc1)c1csc(Nc2ccccc2)n1`: the EC50 is 3.22 µM.

Take `CC(=O)OCC1=C(C(=O)O)N2C(=O)C(NC(=O)c3ccc(COc4cccc(Cl)c4Cl)o3)C2SC1` (configuration not stated): the EC50 was 2.79 µM.

On to `COC(=O)c1ccc(C(=O)OC)c(NC(=O)CN(C)Cc2cccc(Cl)c2Cl)c1`, for which the EC50 is 7.7 µM.

With `Cc1ccc(CNC(=S)NC2CCC(C(C)(C)C)CC2)cc1` (configuration not stated), the EC50 was 3.4 µM.

As to `O=C(Oc1ccc(Cl)c2cccnc12)c1ccco1`, the EC50 is 3.69 µM.

`O=S(=O)(Cc1cc(NCc2ccccc2)nc(-c2ccccn2)n1)c1ccccc1`: the EC50 is 0.808 µM.

For `CC(C)C1Nc2c(O)cc(Cl)c([N+](=O)[O-])c2C2C=CCC21` (configuration not stated), the EC50 is 3.1 µM.

As to `Cc1c(Cl)c(C(F)F)nn1CC(=O)NC1C(=O)N2C(C(=O)O)=C(CSc3nnnn3C)CSC12` (configuration not stated), the EC50 was less than 0.06 µM.

Consider `CCCOc1ccc(C(=O)NNC(=S)NC(=O)CC)cc1`, for which the EC50 was 0.431 µM.

With `O=C1NC(=O)/C(=C\c2ccccc2OCc2ccccc2)S1`, the EC50 was 10.3 µM.

Take `O=[N+]([O-])c1cc(Br)c(O)c(/C=N/Nc2nc3ccccc3s2)c1`: the EC50 is 1.23 µM.

Turning to `Cc1cccc(C)c1Nc1c(-c2ccccn2)nc2ccccn12`, the EC50 is 6.67 µM.

With `CC(C)C(=O)Nc1ccc(C(=O)N/N=C/c2cc(Br)cc(Br)c2O)cc1`, the EC50 was 1.36 µM.

Regarding `Cc1ccc(-c2cc([C@H]3[C@@H]4C=CCC[C@@]4(C)C(=O)N3Cc3ccccc3)ccc2F)cc1`, the EC50 was 3.44 µM.

With `NC(=O)NC(=O)CSc1nc2cc([N+](=O)[O-])ccc2n1-c1cccc(C(F)(F)F)c1`, the EC50 was 0.256 µM.

Consider `CNC(=O)C(=O)NCC1OCCN1S(=O)(=O)c1ccc(OC)c(OC)c1` (configuration not stated), for which the EC50 is > 15 µM (inactive).

Take `O=C(N/N=C/c1c(O)n(-c2ccccc2Cl)c(=O)c2ccccc12)C1COc2ccccc2O1` (configuration not stated): the EC50 was 3.74 µM.

Consider `CCC(C(=O)NCCCN1CCCC1=O)n1c2ccccc2c2nc(=O)cc(C)n21` (configuration not stated), for which the EC50 was > 15 µM (inactive).

On to `COc1cc2ccccc2cc1C(=O)Nc1ccc(NC(=O)c2cccs2)cc1`, for which the EC50 was 6.02 µM.

As for `Cc1cc(C)c2nc(N3C(=O)C(O)=C(C(=O)c4ccco4)C3c3ccco3)sc2c1` (configuration not stated), the EC50 is 2.12 µM.

`FC(F)(F)c1cccc(CNC2c3ccccc3-c3ccccc32)c1`: the EC50 was 6.57 µM.

In the case of `Cc1cccc(/C=C2/S/C(=N/N=C3\CC4CCC3(C)C4(C)C)NC2=O)c1` (configuration not stated), the EC50 is 1.19 µM.

`COC(=O)c1ccc2[nH]c3cccc(/C(=C/c4ccccc4)c4ccccc4)c3c2c1`: the EC50 is 1.12 µM.

Consider `Cc1nc(N)sc1N=Nc1ccc(F)cc1`, for which the EC50 is 2.13 µM.
